Tested on: cyclooxygenase (COX; isoform not resolved, COX1/COX2)
Assay: fluorometric COX peroxidase activity assay (Amplex Red) in BV2 cell lysate
Type: biochemical

IC50 [µM] | SMILES
1.05 ± 1.21 | CC(C(=O)NCCCC[C@H](N)C(=O)O)c1cccc(C(=O)c2ccccc2)c1 (stereo partly drawn) [PD2, pro-drug 2]
2.26 ± 1.33 | CC(C(=O)NCC[C@H](N)C(=O)O)c1cccc(C(=O)c2ccccc2)c1 (stereo partly drawn) [PD3, pro-drug 3]

SMILES | IC50 [µM]
CC(C(=O)O)c1cccc(C(=O)c2ccccc2)c1 (stereo not drawn) [KPF, ketoprofen] | 0.85 ± 1.18
